Test [1] has as its system domestic pig. Conditions: pig with 80-90% LCX stenosis, 0.05 mmol/kg i.v.
Description: A domestic pig (approx 50 kg B.W.) is anesthetized and intubated. The animal undergoes surgical intervention to partially occlude the distal portion of the left circumflex coronary artery (LCX). A calibrated angioplasty balloon is delivered by catheter, guided by X-ray fluoroscopy, from the femoral artery to the heart. It is advanced into the left circumflex coronary artery and inflated to create the equivalent of an 80-90% stenosis. The balloon catheter will remain inflated and at a constant inflation pressure for the duration of the imaging procedure, to simulate a static lesion and stenosis in the coronary artery.
The pig is then transported to the MRI suite and remains under general anesthesia and intubated for the duration of the imaging examination. Sufficient MRI scout scans to plan the myocardial imaging are acquired. Then 0.05 mmol/kg of MS-325 is administered as a single intraveneous injection. Enough time (ca. 10 minutes) for the agent to achieve equilibrium in the blood elapses before imaging commences.
Perfusion imaging is performed using a saturation-recovery gradient echo methods in order to sensitize the MRI to the lowered T1 of the imaging agent. Three short-axis slices (7.5 mm, with 7.5 mm slice separations) are acquired, so that 16 of the 17 AHA/ACC myocardial segments can be visualized. […]
Test [2] concerns domestic pig. Conditions: pig with 80-90% LCX stenosis; 0.05 mmol/kg i.v.; 0.25 mg/kg/min adenosine; confirmed by fluorescent microspheres post-mortem.
Description: (§1) A domestic pig (approx 60 kg B.W.) is anesthetized and intubated. The animal undergoes surgical intervention to partially occlude the distal portion of the left circumflex coronary artery (LCX). A calibrated angioplasty balloon is delivered by catheter, guided by X-ray fluoroscopy, from the femoral artery to the heart. It is advanced into the Left Circumflex coronary artery and inflated to create the equivalent of an 80-90% stenosis. The balloon catheter will remain inflated and at a constant inflation pressure for the duration of the imaging procedure, to simulate a static lesion and stenosis in the coronary artery.
The pig is then transported to the MRI suite and remains under general anesthesia and intubated for the duration of the imaging examination. Sufficient MRI scout scans to plan the myocardial imaging are aquired. […] Enough time (ca. 10 minutes) for the agent to achieve equilibrium in the blood elapses before perfusion imaging commences.
Perfusion imaging is performed using a gradient echo method in order to sensitize the MRI to the lowered T1 of the imaging agent (TR=3.2 ms, FA=12°). Three short-axis 10 mm slices are acquired, so that 16 of the 17 AHA/ACC myocardial segments can be visualized. In this implementation, cardiac-triggering is employed to control heart motion and breathing is suspended to eliminate diaphragmatic motion. […]
Test [3] relates to domestic pig. Conditions: pig with 80-90% LCX stenosis; 0.05 mmol/kg i.v.; 0.25 mg/kg/min adenosine; confirmed by fluorescent microspheres post-mortem. This is another data set of the same source.
Description: as §1
The pig is then transported to the MRI suite and remains under general anesthesia and intubated for the duration of the imaging examination. Sufficient MRI scout scans to plan the myocardial imaging are aquired. 0.05 mmol/kg of MS-325 is administered as a single intraveneous injection. Enough time (ca. 10 minutes) for the agent to achieve equilibrium in the blood elapses before perfusion imaging.
Perfusion imaging is performed using a gradient echo method in order to sensitize the MRI to the lowered T1 of the imaging agent (TR=5.0 ms, FA=12°). Three 10 mm short-axis slices are acquired, so that 16 of the 17 AHA/ACC myocardial segments can be visualized. […]

On to `O=C([O-])CN(CCN(CC(=O)[O-])C[C@H](COP(=O)([O-])OC1CCC(c2ccccc2)(c2ccccc2)CC1)N(CC(=O)[O-])CC(=O)[O-])CC(=O)[O-].[Gd+3].[H+].[H+].[H+]` [MS-325], for which, in test [1] (after 5 minutes of 0.25 mg/kg/min adenosine infusion), the “Corresponding image during stress” value is given as “a greater degree of negative contrast with the remaining myocardial wall”. Further, the “Analysis of MR images (perfusion imaging at rest)” value in test [1] (imaging ca. 10 minutes after injection, before adenosine) is listed as “a suspicious hypo-intense region in the anterior wall of the left ventrical”. For the same molecule, the “Analysis of MR images during vasodilatory stress” value in test [2] is “a hypo-intense region in the wall of the left ventricle”. The “Analysis of MR images during adenosine stress” value in test [3] is “a hypo-intense region in the myocardial wall”.

The record behind these values is patent US20060210478A1, “Steady state perfusion methods” (priority 2005, published 2006).
